Like-named read-outs stand apart in the source and are kept apart here.
How the values were obtained:
[1] = system: CAL-27, CAL-33, and SCC-47 squamous cell carcinoma cell lines; assay: Proliferation assays in human head and neck tumor lines; format: cell-based; conditions: rimantadine alone; CAL-27, CAL-33, SCC-47
Experimental: (§1) Cell cycle progression was analyzed on the basis of BrdU incorporation following […] cell staining with BrdU-APC and 7-AAD using BD Pharmingen BrdU Flow Kit. (BD, Franklin Lakes, NJ) according to the manufacture's protocol. Cells are analyzed using flow cytometry. Cell proliferation is assessed by using MTT [3-(4,5-dimethylthiazol-2-yl)-2,5-diphenyltetrazolium bromide]. First, cells are seeded in 96-well plate and cultured for 2-3 days. Next, culture media is replaced with fresh media containing 0.5 mg/ml of MTT (Sigma) and the plates are incubated for 4 hours at 37° C. Then, purple formazan crystals are dissolved in lysis buffer (4 mM HCl and 0.1% NP-40 in isopropanol) and the absorbance is recorded on a TECAN infiniteM200 microplate reader (Tecan, Mannedorf, Switzerland) at a wavelength of 570 nm with absorbance at 650 nm as reference.

[2] = system: CAL-27, CAL-33, and SCC-47 squamous cell carcinoma cell lines; assay: BrdU incorporation assays in human head and neck tumor lines; format: cell-based; conditions: rimantadine alone; CAL-27, CAL-33, SCC-47
Experimental: as §1

M2 channel pore = M2 channel pore (Influenza A virus, UniProt P06821); conditions: one study; other studies found no difference; cited from earlier work
M2 channel pore, sequence (P06821 whole entry): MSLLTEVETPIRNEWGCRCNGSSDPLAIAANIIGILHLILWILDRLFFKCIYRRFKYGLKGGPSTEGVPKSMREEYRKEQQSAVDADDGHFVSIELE

E5-positive AT-84-E7 = assay: Cell surface expression of MHC I (flow cytometry); format: cell-based
[3] = system: cell lines engineered to express HPV16 E5; assay: Cell cycle arrest in cell lines engineered to express HPV16 E5; format: cell-based, murine and human
Experimental: as §1

4T1 tumor cells = assay: 4T1 tumor model in mice; format: in vivo, mouse; conditions: 10 mg/kg IP once daily, 7 injections starting on day 6
[4] = system: B16-OVA cells cocultured with B3Z cells; assay: B3Z activation assay; format: cell-based; conditions: 100 μM, 24 hours before B3Z co-culture
Experimental: B16-OVA cells are seeded into a 96-well plate and treated with 100 μM […], […] or racemic rimantadine for 24 hours, prior to addition of B3Z cells. After 24 hours of co-culture, medium is removed and 100 μl of lysis buffer [0.155 mM chlorophenol red β-D-galactopyranoside (CPRG) (Roche), 0.125% Nonidet P-40 Alternative (EMDCalbiochem), and 9 mM MgCl2 (Sigma) in PBS] are added. After incubation for 4 hours at 37° C., the absorbance at 570 nm is determined on a TECAN infinite M200 microplate reader.

[5] = system: glutamate, GABA, dopamine receptors
From the text: Next, a series of SPECT analyses as described in Schramm, N., et al. (2000).
The SPECT analyses comprise of treatment of the mice with radioligands specific to each receptor. For example, [^123I] IBZM has been documented to have a high affinity for the D2/3 dopamine receptor.

B16-OVA tumor cells = assay: B16-OVA tumor model in mice; format: in vivo, mouse; conditions: for tumor sizes compared to control groups: 10 mg/kg IP once daily, 7 injections starting on day 10; for survival: with anti-PDL1 immunotherapy, mice harboring B16-OVA tumors
T cells = assay: Proliferation of T cells; format: cell-based
Stathmin = assay: RTqPCR gene expression of cell cycle proteins; format: cell-based
Experimental: (§2) Total RNA is extracted using TRIzol Reagent (Invitrogen) and reverse transcribed with qScript cDNA Synthesis Kit (Quanta BioSciences, Beverly, MA) according to the manufacturer's instructions. Quantitative PCR analysis is conducted by using KAPA SYBR […] FAST (KAPA Biosystems, Wilmington, MA) on the 7900HT Fast Real-Time PCR System (Applied Biosystems, Foster City, CA).

Tau = assay: RTqPCR gene expression of cell cycle proteins; format: cell-based
Experimental: as §2

AT-84-E7 tumors = format: in vivo, mouse; conditions: tumors which do not express E5
D2/3 dopamine receptor = conditions: documented; cited from earlier work
[6] = target: NR1/NR2B ionotropic receptor (Homo sapiens, UniProt Q05586+Q13224); assay: ScreenPatch assay (IonWorks Barracuda electrophysiology) on NR1/NR2B; conditions: refers to Table 2
NR1/NR2B ionotropic receptor, sequence (Q13224 27-1484, other chains not shown): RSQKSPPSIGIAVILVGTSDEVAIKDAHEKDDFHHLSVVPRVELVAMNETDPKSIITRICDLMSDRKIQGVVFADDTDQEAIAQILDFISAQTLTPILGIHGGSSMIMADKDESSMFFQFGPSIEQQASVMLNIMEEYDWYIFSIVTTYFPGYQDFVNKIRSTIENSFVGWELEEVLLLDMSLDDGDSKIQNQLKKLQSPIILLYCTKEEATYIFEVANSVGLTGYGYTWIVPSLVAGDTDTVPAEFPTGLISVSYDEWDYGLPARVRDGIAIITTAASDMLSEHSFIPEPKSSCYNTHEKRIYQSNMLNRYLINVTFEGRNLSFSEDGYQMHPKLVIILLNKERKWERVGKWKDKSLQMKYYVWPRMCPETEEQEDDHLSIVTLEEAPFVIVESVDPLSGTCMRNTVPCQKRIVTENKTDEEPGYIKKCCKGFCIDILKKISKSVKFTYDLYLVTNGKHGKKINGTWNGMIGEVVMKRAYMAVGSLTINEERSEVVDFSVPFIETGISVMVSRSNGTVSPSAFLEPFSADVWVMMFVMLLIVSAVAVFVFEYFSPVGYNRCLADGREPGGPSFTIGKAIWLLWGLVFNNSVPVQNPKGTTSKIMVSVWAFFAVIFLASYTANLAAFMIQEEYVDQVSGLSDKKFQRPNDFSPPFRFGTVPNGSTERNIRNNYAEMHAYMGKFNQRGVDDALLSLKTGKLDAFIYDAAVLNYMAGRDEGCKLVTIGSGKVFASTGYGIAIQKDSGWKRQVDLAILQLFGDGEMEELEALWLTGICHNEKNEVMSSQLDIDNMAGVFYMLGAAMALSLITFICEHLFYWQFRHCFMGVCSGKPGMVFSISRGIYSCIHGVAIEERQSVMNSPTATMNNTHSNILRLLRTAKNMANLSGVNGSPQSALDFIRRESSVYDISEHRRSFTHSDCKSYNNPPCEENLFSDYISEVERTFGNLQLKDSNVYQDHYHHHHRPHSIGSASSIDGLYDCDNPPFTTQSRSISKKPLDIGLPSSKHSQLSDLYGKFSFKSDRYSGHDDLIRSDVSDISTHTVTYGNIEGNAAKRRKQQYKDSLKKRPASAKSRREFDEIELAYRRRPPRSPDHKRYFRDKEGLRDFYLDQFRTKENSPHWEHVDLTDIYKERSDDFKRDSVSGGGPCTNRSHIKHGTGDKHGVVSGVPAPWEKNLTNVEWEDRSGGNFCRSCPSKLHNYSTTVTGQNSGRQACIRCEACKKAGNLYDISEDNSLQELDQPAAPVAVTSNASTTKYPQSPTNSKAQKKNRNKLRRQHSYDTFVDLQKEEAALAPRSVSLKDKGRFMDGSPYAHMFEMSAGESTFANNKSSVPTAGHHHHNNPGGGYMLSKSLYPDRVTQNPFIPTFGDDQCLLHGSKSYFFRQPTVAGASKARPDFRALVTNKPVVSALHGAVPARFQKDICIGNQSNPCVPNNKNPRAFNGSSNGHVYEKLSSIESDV

CAL-27 cells = assay: Example 6 proliferation in vitro (MTT); format: cell-based, human; conditions: 0-500 μM, 24 or 48 hours
Experimental: On day 1, CAL-27 cells were seeded in a 96-well plate (2-4×10^3 cells/well, medium 100 μl/well) and left overnight to allow the cells to attach to the plate. On day 2, varying concentrations of rimantadine (0 μM, 100 μM, 250 μM, or 500 μM) were added to the cells and allowed to incubate for 24 hours or 48 hours. On either day 3 or 4, the culture media was aspirated, and 100 μl/well of MTT solution (comprising an MTT concentration of 0.5 mg/ml; formed by dilution of thiazolyl blue tetrazolium bromide solution (SIGMA, Cat #M2128) with stock solution (5 mg/ml in PBS (−20° C.)) was added to the culture media. The cells were incubated in a CO2 incubator at 37° C. for 3 hours, and the MTT solution was aspirated. 100 μl/well of DMSO was then added and the cells were incubated for about 5 minutes. A OD570 nm (Ref 650 nm) was then read. Results of the experiment are shown in FIG. 2.

NMDA receptors = assay: ScreenPatch two-application protocol, agonist and antagonist format; format: cell-based, human; conditions: first application; data not shown
Experimental: A two-application protocol was employed.
Agonist Format: The potential agonist effect of the test articles and the positive control antagonist, amantadine, were examined during first application.
To access open channel block type of inhibition, peak and steady state current amplitudes (between 4th and 5th seconds after agonist application) were measured (PCA and SSC respectively).

SMILES | cell surface expression of MHC I (E5-positive AT-84-E7) | cell cycle arrest [3] | tumor sizes compared to control groups (4T1 tumor cells) | increase in recognition of model tumor antigen by B3Z cells [4] | tumor sizes compared to control groups (B16-OVA tumor cells) | survival (B16-OVA tumor cells) | proliferation of T cells (T cells) | gene expression of Stathmin (Stathmin) | gene expression of Tau (Tau) | anti-tumor effect (AT-84-E7 tumors) | further results
CC(N)C12CC3CC(CC(C3)C1)C2 (stereo not shown) [rimantadine] | – | – | – | – | – | – | – | – | – | – | proliferation [1]: decreased; cell cycle arrest [2]: Significant cell cycle arrest
C[C@@H](N)C12CC3CC(CC(C3)C1)C2 [2-R rimantadine] | restored | induce cell cycle arrest | statistically significant decreases | 3 fold | statistically significant decreases | significant improvement | no significant effects | significant decreases | Decreases | decreased | affinity for M2 channel pore compared with the S-enantiomer (M2 channel pore): greater affinity; incidence of central nervous system adverse effects, compared with the other enantiomer ([5]; Example 4): higher incidence
CCN1CCC[C@H]1CNC(=O)c1c(OC)ccc([123I])c1O [[^123I] IBZM] | – | – | – | – | – | – | – | – | – | – | affinity for the D2/3 dopamine receptor (D2/3 dopamine receptor): high affinity
C[C@H](N)C12CC3CC(CC(C3)C1)C2 [2-S rimantadine] | restored | induce cell cycle arrest | statistically significant decreases | 3 fold | statistically significant decreases | significant improvement | no significant effects | significant decreases | Decreases | decreased | inhibition of NR2B subunits as compared to 2-R rimantadine and racemic rimantadine [6]: to a lesser degree; cancer cell proliferation as compared to R-rimantadine or racemic rimantadine (CAL-27 cells): enhanced or equivalent; toxicity as a treatment for cancer as compared to 2-R rimantadine ([5]; Example 4): significantly less toxic; incidence of central nervous system adverse effects, compared with the other enantiomer ([5]; Example 5): higher incidence; toxicity as a treatment for cancer as compared to 2-R rimantadine ([5]; Example 5): significantly less toxic
NC12CC3CC(CC(C3)C1)C2 [Amantadine, amantadine] | – | – | – | – | – | – | – | – | – | – | agonist effect: activation of NMDA receptors (NMDA receptors): Neither test articles nor amantadine had produced significant activation
